For experiment [1], the system named is EGFR in EGFR-mutant NSCLCs. The experiment is described as follows: Western blot of EGFR levels, EGFR signaling and PARP/caspase-3 cleavage. The format is cell-based. To be noted: for EGFR signaling (AKT and ERK phosphorylation) / EGFR levels / PARP and caspase-3 cleavage (apoptosis markers): EGFR-mutant NSCLCs, immunoblot. As to the method: (§1) Cells were lysed in RIPA lysis buffer containing protease inhibitor cocktail (Thermo Scientific, Waltham, Mass., USA); lysate concentrations were assayed using a BCA assay (Thermo Scientific). Equal amounts of lysates were mixed with Laemmli loading dye and boiled for 10 minutes. Lysates were subjected to SDS-PAGE, and separated proteins were transferred to PVDF membranes (EMD Millipore, Billerica, Mass., USA). Membranes were blocked in Tris-buffered saline (TBS) containing 5% nonfat dry milk and 0.1% Tween 20 (TBS-T) prior to overnight incubation with primary antibody at 4° C. After washing with TBS-T, blots were exposed to appropriate horseradish peroxidase-conjugated secondary antibodies for 1 hour. Proteins-antibody complexes were visualized on Kodak X-ray film using an enhanced chemiluminescence (ECL) detection system (Thermo Scientific, Waltham, Mass., USA).

The subject of experiment [2] is PC9 cells. Description: TCA metabolite pools by LC-MS/MS. The format is cell-based. To be noted: 2DG 10 mM or BPTES 10 μM. The procedure: Cells were grown to ˜60% confluence in growth media (RPMI1640, 10% FBS) on 10-cm dishes. After 24 hours, cells were harvested using 1.4 mL of cold methanol/H2O (80/20, v/v) after sequential PBS and H2O washes, and lysed; 100 μL of 5 μM internal standard was added. Metabolites were liquid-liquid extracted from the aqueous phase after adding chloroform. The aqueous phase was dried via vacuum centrifugation, and the sample was reconstituted with 50 μL of 50% methanol prior to LC/MS-MS analysis. The LC/MS-MS system was equipped with an Agilent 1290 HPLC (Agilent Technologies, Santa Clara, Calif., USA), Qtrap 5500 (ABSciex, Concord, Ontario, Canada), and reverse phase column (Synergi fusion RP 50×2 mm). A 3 μL volume was injected into the LC/MS-MS system and ionized with a turbo spray ionization source. Multiple reaction monitoring was used in negative ion mode, and the extracted ion chromatogram (EIC), corresponding to the specific transition for each metabolite was used for quantitation. The area under the curve of each EIC was normalized to that of the internal standard EIC. The peak area ratio of each metabolite to the internal standard was normalized using protein amount in a sample, and then was used for relative comparison.

Experiment [3] relates to EGFR-WT NSCLCs (A549 and H1299). The experiment is described as follows: Apoptotic cell death by Annexin V/PI staining and flow cytometry. The note with it: 24 h treatment. Format: cell-based. The procedure: (§2) Apoptotic cell death was detected using an Annexin-V/FITC assay. Cells were harvested by trypsinization, washed with PBS, and resuspended in Annexin-V binding buffer (10 mM HEPES, pH 7.4, 140 mM NaCl, 2.5 mM CaCl2) containing Annexin-V FITC and propidium iodide. Stained cells were quantified and analyzed on a flow cytometer (BeckmanCoulter, Brea, Calif., USA).

Experiment [4] concerns EGFR-mutant NSCLCs (PC9 and H1975). The description is as above. Format: cell-based. The note with it: for apoptotic cell death: EGFR-mutant NSCLCs, 24 h treatment; for rescue from glucose deprivation-induced apoptosis: glucose-free medium, 24 h, SP600125 15 μM. As to the method: as §2
In experiment [5] the test system is PC-9/GR and PC-9/ER cells. The experiment is described as follows: Western blot of JNK, EGFR signaling and apoptosis markers in EGFR-TKI-resistant cells. To be noted: 24 h. Format: cell-based. As to the method:
as §1

The test system of experiment [6] is EGFR-mutant NSCLCs. The experiment is described as follows: Autophagy: LC3-II immunoblot and GFP-LC3 puncta. Format: cell-based. To be noted: 2DG 10 mM or anisomycin 5 μM, 24 h. As to the method:
as §1
On the technique in general: In western blotting, separated proteins are transferred to a membrane and probed.

Experiment [7] deals with PC-9/GR and PC-9/ER cells. Description: Apoptotic cell death by Annexin V/PI staining and flow cytometry in EGFR-TKI-resistant cells. The format is cell-based. The note with it: PC-9/GR and PC-9/ER cells (T790M), 24 h. The procedure: as §2
The test system of experiment [8] is PC9 and H1975 tumor cell xenografts. The experiment is described as follows: Xenograft studies, tumor volume. Format: in vivo, SCID mice. The note with it: 2DG 500 mg/kg, intraperitoneal, 5 days a week for 2 weeks; compared with EGFR-WT (A549) xenografts. As to the method: Female severe combined immunodeficiency (SCID) mice were purchased from Charles River Laboratories. All experimental procedures were approved by the Institutional Animal Care and Use Committee of Asan Institute for Life Sciences (protocol 2015-14-241). For each animal, 2×10^6 cells mixed with Matrigel (BD Biosciences) were injected into the flank. Five mice per group were treated when the tumor volumes reached 50 to 100 mm^3 with anisomycin (5 mg/kg, intratumoral, 5 days a week) or 2-deoxy-D-glucose (2DG) 500 mg/kg, intraperitoneal, 5 days a week) for 2 weeks. The length (L) and width (W) of each tumor were measured using calipers, and the tumor volume (TV) was calculated as TV=(L×W^2)/2. To evaluate EGFR-related signaling in xenograft tumors, tumors were harvested after 3 days of drug treatment, lysed, and analyzed with Western blotting.

The test system of experiment [9] is EGFR. Description: EGFR transcriptional level. Format: cell-based. The procedure: Total RNA was extracted using TRIzol (Invitrogen, Carlsbad, Calif., USA). cDNA was synthesized from 2 μg of total RNA, using oligo-dT and MMLV HP reverse transcriptase (Epicentre, Madison, Wis., USA) according to the manufacturer's instruction. qRT-PCR was performed on an AriaMax Real-Time PCR instrument (Agilent Technologies, Santa Clara, Calif., USA) using the SYBR detection protocol. cDNA was calculated by the comparative Ct method, with 18S ribosomal RNA as a control. PCR reactions were performed in triplicates.

Experiment [10] relates to IGF1R and MET in EGFR-mutant NSCLCs. Description: Western blot of other receptor tyrosine kinases. To be noted: 2DG 10 mM, 24 h. Format: cell-based. As to the method: as §1
Experiment [11] relates to pentose phosphate pathway. Description: NADP+/NADPH ratios. Format: cell-based. To be noted: data not shown.
Experiment [12] concerns EGFR-mutant NSCLCs. The experiment is described as follows: ROS quantification (DCFDA and MitoSox Red). The format is cell-based. To be noted: 2DG 10 mM or rotenone 5 μM, 24 h. As to the method:
To determine cytoplasmic ROS, cells were incubated with 2′,7′-dichlorodihydrofluorescein diacetate (DCFDA, 5 μM; Invitrogen, Carlsbad, Calif., USA) for 30 minutes. Excess DCFDA was removed by washing cells twice with PBS at room temperature; labeled cells were trypsinized, rinsed, and resuspended in PBS. The oxidation of DCFDA to the highly fluorescent 2′,7′-dichloro-fluorescein (DCF), which is proportionate to ROS generation, was analyzed by flow cytometry. To analyze mitochondrial ROS, the cells were then incubated with 5 μM MitoSOX™ reagent (Thermo Scientific, Waltham, Mass., USA) for 10 minutes at 37° C. and trypsinized, washed with PBS, and then resuspended in 200 μL of PBS. Stained cells were then quantified and analyzed on a flow cytometer (BeckmanCoulter, Brea, Calif., USA). Excitation wavelength was 510 nm, and emission wavelength was 580 nm.

Experiment [13] has as its system PC9 cells. The experiment is described as follows: Quantitation of intracellular ATP. Format: cell-based. To be noted: MPYR or AKG 7 mM, 24 h. As to the method:
Intracellular ATP concentrations were measured using an ATP Colorimetric/Fluorometric Assay Kit (Biovision Incorporated, Milpitas, Calif., USA) according to the manufacturer's instructions. Briefly, cells were lysed in […] of ATP assay buffer; 50 μL of supernatants were collected and added to a 96-well plate. To each well, 50 μL of ATP assay buffer containing ATP probe, ATP converter, and developer were added. Absorbance was measured at 570 nm.

Experiment [14] deals with JNK in EGFR-mutant NSCLCs. The experiment is described as follows: Western blot for JNK and P-JNK. To be noted: for JNK activation (P-JNK): EGFR-mutant NSCLCs, immunoblot. The format is cell-based. As to the method:
as §1

SMILES strings stand for the structures.

As to `O=C(Cc1ccccc1)Nc1nnc(CCSCCc2nnc(NC(=O)Cc3ccccc3)s2)s1` [BPTES], the “EGFR signaling (AKT and ERK phosphorylation)” value in experiment [1] is on record as “had no effect on EGFR signaling”. The “levels of TCA cycle intermediates” value in experiment [2] is recorded as “no significant inhibitory effect”.
In the case of `O=CC[C@@H](O)[C@H](O)[C@H](O)CO` [2DG, 2-deoxy-D-glucose], the apoptotic cell death result in [3] is on record as “only in EGFR-mutant NSCLCs”. Also, the apoptotic cell death result in experiment [4] is listed as “promoted apoptosis”. Besides, the JNK activation result in experiment [5] (2DG 10 mM) is “markedly activated JNK”. In experiment [5], the “EGFR level, AKT and ERK phosphorylation, PARP and caspase-3 cleavage” value is “EGFR level reduction, AKT and ERK phosphorylation inhibition, and PARP and caspase-3 cleavage”. Further, the LC3-II levels result in experiment [6] is “significant increase in LC3-II levels”. Moreover, the “number of GFP-LC3 puncta” value in experiment [6] (PC9 cells expressing GFP-LC3) was “profoundly increased”. Besides, in [1], the EGFR levels result is on record as “robust reduction of EGFR levels”; the “EGFR signaling (AKT and ERK phosphorylation)” value was “inhibition of EGFR signaling”; the “PARP and caspase-3 cleavage (apoptosis markers)” value is “leading to apoptosis”. Also, the “EGFR levels upon ATG7 knockdown” value in experiment [1] (cells expressing ATG7 shRNAs, 2DG 10 mM or anisomycin 5 μM, 24 h) is given as “did not reduce EGFR levels”. Moreover, the apoptosis entry in [7] was “significant induction of apoptosis”. The “tumor growth of xenografts” value in experiment [8] is “robustly diminished the growth”. The EGFR transcriptional level result in [9] is “no significant effect”. For the same compound, in experiment [10], the IGF1R phosphorylation result is “significantly decreased”; the MET phosphorylation result is given as “marginally decreased”; the “total form of IGF1R and MET” value is recorded as “did not change”. Also, the “NADP+/NADPH ratios” value in experiment [11] is “no significant effect”. Further, in experiment [12], the “cytoplasmic and mitochondrial ROS levels” value was “significant increases”. Also, the “levels of TCA cycle intermediates” value in [2] is recorded as “significantly decreased”.
In the case of `O=C(O)CCC(=O)C(=O)O` [α-ketoglutarate], the “rescue from glucose deprivation-induced apoptosis” value in experiment [4] (MPYR or AKG 7 mM, NAC 4 mM) is reported as “rescue EGFR-mutant NSCLCs from glucose deprivation-induced apoptosis”. For the same compound, the “recovery of ATP levels reduced by glucose deprivation” value in experiment [13] is reported as “significant recovery of ATP levels”.
As for `CCN(CC)CCCC(C)Nc1ccnc2cc(Cl)ccc12` (centres unmarked) [chloroquine], the “PARP and caspase-3 cleavage upon glucose deprivation, 2DG, or anisomycin treatment” value in [1] (chloroquine 10 μM, 24 h) is recorded as “robustly inhibited”. Moreover, the “reduction in EGFR levels caused by glucose deprivation, 2DG, or anisomycin treatment” value in experiment [1] (in the presence of chloroquine, 24 h) is “dramatically inhibited”.
`OO` [H2O2, hydrogen peroxide]: the apoptotic cell death entry in experiment [4] is “activated apoptosis in EGFR-mutant NSCLCs in a dose-dependent manner”. In [1], the EGFR levels result was “markedly reduced the EGFR levels”; the “EGFR signaling (AKT and ERK phosphorylation)” value was “inhibited the AKT and ERK phosphorylation”; the “PARP and caspase-3 cleavage (apoptosis markers)” value was “cleaved the PARP and caspase-3 in a dose-dependent manner”. The “JNK activation (P-JNK)” value in experiment [14] was “activated JNK in a dose-dependent manner”.
`C=C(C)[C@H]1Cc2c(ccc3c2O[C@@H]2COc4cc(OC)c(OC)cc4[C@@H]2C3=O)O1` [rotenone]: in [4], the apoptotic cell death result is recorded as “rotenone-mediated apoptosis”. In addition, the EGFR levels result in experiment [1] was “robustly decreased EGFR levels in both dose- and time-dependent manners”. In addition, in experiment [14], the “JNK activation (P-JNK)” value was “significantly induced JNK activation in both dose- and time-dependent manners”. Moreover, the “cytoplasmic and mitochondrial ROS levels” value in experiment [12] is recorded as “significant increases”.
With `OC[C@H]1O[C@H](O[C@H]2O[C@H](CO)[C@@H](O)[C@H](O)[C@H]2O)[C@H](O)[C@@H](O)[C@@H]1O` [trehalose], the EGFR levels entry in experiment [1] is “significantly induced EGFR degradation in a dose-dependent manner”.
For the compound `CC(=O)N[C@@H](CS)C(=O)O` [NAC, N-acetyl-L-cysteine], the “rescue from 2DG treatment-induced apoptotic cell death” value in [4] (2DG 10 mM, MPYR or AKG 7 mM, NAC 4 mM) is reported as “significantly rescued cell death”. Moreover, the “rescue from anisomycin-induced cell death” value in [4] (anisomycin 24 h in absence or presence of NAC (FIG. 10a)) is “did not rescue”. Moreover, in experiment [4] (MPYR or AKG 7 mM, NAC 4 mM), the “rescue from glucose deprivation-induced apoptosis” value was “significantly rescued cell death”. In addition, the “rescue from rotenone-mediated apoptosis” value in [4] (rotenone 5 μM, methyl-pyruvate or NAC 4 mM) is given as “significantly rescued cell death”. In experiment [1] (NAC 4 mM, 24 h), the “EGFR levels and AKT and ERK phosphorylation following glucose deprivation, 2DG, or rotenone treatment” value is recorded as “significant recovery”; the “PARP and caspase-3 cleavage upon glucose deprivation, 2DG, or rotenone treatment” value is on record as “significantly inhibited”. Moreover, the “recovery of anisomycin-decreased EGFR signaling or EGFR levels” value in [1] (anisomycin with NAC (FIG. 10b)) is recorded as “could not recover”. In experiment [14] (NAC 4 mM, 24 h), the “JNK activation induced by glucose deprivation, 2DG, or rotenone treatment” value is reported as “completely inhibited”. Further, the “inhibition of anisomycin-induced JNK activation” value in experiment [14] (anisomycin with NAC (FIG. 10c)) is “could not”.

These data come from US20200121645A1, “COMPOSITION FOR PREVENTING OR TREATING EGFR-MUTANT NON-SMALL CELL LUNG CANCER” (THE ASAN FOUNDATION, priority 2018, published 2020).
